# From patent US20230174947A1, “METHODS AND COMPOSITIONS FOR IMPROVING ENDOTHELIAL CELL BARRIER” (United Therapeutics Corporation, priority 2021, published 2023)
# System: HPAECs
# Assay: HPAEC proliferation, cell counts by Hoechst-stained nuclei (Celigo)
# Format: cell-based, Human
# Details: Forskolin 40 μM, FTY720-P 50 nM, Methylprednisolone 1 μM; MCDB131
# Protocol: HPAECs were seeded at low initial confluency (3000-5000 cells/cm^2) to study their growth on Collagen type-I coated culture dishes. Barrier agonists were added at 0 hours (FIG. 10A) or at 48 hours (FIG. 10B) and were maintained through the remainder of culture. Barrier agonist compounds, when added to the culture medium (MCDB131), were added at the following concentrations: Forskolin (40 μM), FTY720-P (50 nM), Methylprednisolone (1 μM). Cell counts were measured through individual quantification of nuclei, stained with Hoechst dye and imaged on the Celigo Imaging Cytometer (Nexcelom Bioscience).
smiles,measurement,value
"CCCCCCCCc1ccc(CC[C@](N)(CO)COP(=O)(O)O)cc1 [FTY720P, fingolimod-phosphate]",endothelial cell proliferation (summary statement of Example 6),no reduction in endothelial proliferation
